Test results as given in patent US9296746B2, “Heterocyclic compound” (TAKEDA PHARMACEUTICAL COMPANY LIMITED, priority 2012, dated 2016).

Molecular target: T1, human CH24H (Homo sapiens, UniProt Q9Y6A2)
T1 construct: Using Full-Length Mammalian Gene Collection No. 4819975 (Invitrogen) as a template; made in house; host or cells: FreeStyle 293-F cells (transient transfection); cell lysate supernatant, not purified
Test: Measurement of CH24H inhibitory activity (24-HC produced from [14C] cholesterol by human CH24H lysate)
Format: biochemical
Conditions: test compound 1 μM, [14C] cholesterol 15 μM, 37° C., 5 hr, read-out: Inhibitory Rate (%) in 1 μM
Procedure: The expression of human CH24H was performed using FreeStyle 293 Expression System (Invitrogen). According to the manual attached to FreeStyle 293 Expression System and using the plasmid DNA for human CH24H expression (pcDNA3.1(+)/hCH24H) constructed in Experimental Example 1, a transient expression using FreeStyle 293-F cell was performed. After transfection, the cells were cultured at 37° C., 8% CO2 with shaking at 125 rpm for 2 days. The cells were collected by centrifugation, and suspended in a suspension buffer (100 mM potassium phosphate (pH 7.4), 0.1 mM EDTA, 1 mM DTT, 20% Glycerol). The suspended product was disrupted by a polytron homogenizer (manufactured by Kinematica), and centrifuged at 9000×g for 10 min, and the supernatant was collected. The collected supernatant was cryopreserved (−80° C.) as a human CH24H lysate standard product.
For the measurement of CH24H inhibitory activity, using the human CH24H lysate prepared in Experimental Example 2, the amount of 24-HC produced from cholesterol by catalytic activity of CH24H was measured in the presence of a test compound, and compared with that measured in the absence of the test compound. That is, a test compound solution at various concentrations was mixed with a reaction buffer (50 mM potassium phosphate containing 0.1% BSA and Complete, EDTA-free, pH 7.4) and human CH24H lysate. Then, [^14C] cholesterol (53 mCi/mmol specific activity, 15 μM) was added, and CH24H reaction was performed at 37° C. for 5 hr. After completion of the reaction, a quenching solution consisting of chloroform/methanol/distilled water (2:2:1 v/v) was added, and the resulting 24-HC was extracted by shaking. The extract was applied to silica gel thin layer chromatography (ethyl acetate:toluene=4:6), and the obtained ^14C-24HC fraction was measured with BAS2500 (Fujifilm Corporation).
The inhibitory rate (%) was calculated from the ratio of radioactivity in the presence of a test compound relative to the radioactivity in the absence of the test compound.

T1 sequence (Q9Y6A2 whole entry): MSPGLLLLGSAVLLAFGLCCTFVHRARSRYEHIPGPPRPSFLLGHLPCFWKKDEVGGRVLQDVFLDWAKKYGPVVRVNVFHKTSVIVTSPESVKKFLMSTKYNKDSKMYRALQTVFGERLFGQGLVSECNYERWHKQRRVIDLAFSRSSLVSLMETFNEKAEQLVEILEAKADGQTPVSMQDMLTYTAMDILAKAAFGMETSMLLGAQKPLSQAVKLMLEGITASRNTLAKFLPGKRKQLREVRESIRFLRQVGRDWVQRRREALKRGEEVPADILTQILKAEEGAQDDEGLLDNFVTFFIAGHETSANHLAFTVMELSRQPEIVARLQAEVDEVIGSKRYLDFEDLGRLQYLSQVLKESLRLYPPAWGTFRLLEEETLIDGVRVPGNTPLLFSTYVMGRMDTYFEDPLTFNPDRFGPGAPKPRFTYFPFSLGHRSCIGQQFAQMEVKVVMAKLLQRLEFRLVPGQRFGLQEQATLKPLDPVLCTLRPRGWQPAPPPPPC

| SMILES | inhibition at 1 µM [%] |
| --- | --- |
| N#C[C@H]1CCCN1C(=O)c1cnc2c(-c3cnco3)cc(C(F)(F)F)cn12 [Example 175, (2R)-1-((8-(1,3-oxazol-5-yl)-6-(trifluoromethyl)imidazo[1,2-a]pyridin-3-yl)carbonyl)pyrrolidine-2-carbonitrile] | 80 |
| O=C(c1cnc2c(-c3cnco3)cc(C3CC3)cn12)N1C2CCC1COC2 [Example 143, (6-cyclopropyl-8-(1,3-oxazol-5-yl)imidazo[1,2-a]pyridin-3-yl)(3-oxa-8-azabicyclo[3.2.1]oct-8-yl)methanone] | 91 |
| O=C(c1cnc2c(-c3cnco3)cc(C(F)(F)F)cn12)N1CC2(COC2)C1 [Example 22, 2-oxa-6-azaspiro[3.3]hept-6-yl(8-(1,3-oxazol-5-yl)-6-(trifluoromethyl)imidazo[1,2-a]pyridin-3-yl)methanone] | 93 |
| O=C(c1cnc2c(-c3cn[nH]c3)cc(C(F)(F)F)cn12)N1C[C@@H]2C[C@H]1CO2 [Example 134, (1S,4S)-2-oxa-5-azabicyclo[2.2.1]hept-5-yl(8-(1H-pyrazol-4-yl)-6-(trifluoromethyl)imidazo[1,2-a]pyridin-3-yl)methanone] | 71 |
| O=C(c1cnc2c(-c3cnco3)cc(C(F)(F)F)cn12)N1CC[C@H](O)C1 [Example 87, ((3S)-3-hydroxypyrrolidin-1-yl)(8-(1,3-oxazol-5-yl)-6-(trifluoromethyl)imidazo[1,2-a]pyridin-3-yl)methanone] | 94 |
| O=C(c1cnc2c(-c3cnco3)cc(C(F)(F)F)cn12)N1CC(F)C1 [Example 177, (3-fluoroazetidin-1-yl)(8-(1,3-oxazol-5-yl)-6-(trifluoromethyl)imidazo[1,2-a]pyridin-3-yl)methanone] | 86 |
| O=C(c1cnc2c(-c3cnco3)cc(C(F)(F)F)cn12)N1C2COCC1C2 [Example 86, 3-oxa-6-azabicyclo[3.1.1]hept-6-yl(8-(1,3-oxazol-5-yl)-6-(trifluoromethyl)imidazo[1,2-a]pyridin-3-yl)methanone] | 95 |
| O=C(Nc1ccccc1)c1cnc2c(-c3cnco3)cc(C(F)(F)F)cn12 [Example 74, 8-(1,3-oxazol-5-yl)-N-phenyl-6-(trifluoromethyl)imidazo[1,2-a]pyridine-3-carboxamide] | 96 |
| O=C(c1cnc2c(-n3cncn3)cc(C(F)(F)F)cn12)N1C2CCC1COC2 [Example 142, 3-oxa-8-azabicyclo[3.2.1]oct-8-yl(8-(1H-1,2,4-triazol-1-yl)-6-(trifluoromethyl)imidazo[1,2-a]pyridin-3-yl)methanone] | 87 |
| O=C(c1cnc2c(-c3cnco3)cc(Cl)cn12)N1C[C@@H]2C[C@H]1CO2 [Example 92, (6-chloro-8-(1,3-oxazole-5-yl)imidazo[1,2-a]pyridin-3-yl)((1S,4S)-2-oxa-5-azabicyclo[2.2.1]hept-5-yl)methanone] | 86 |
| O=C(c1cnc2c(-c3cnco3)cc(C(F)F)cn12)N1C[C@@H]2C[C@H]1CO2 [Example 171, (6-(difluoromethyl)-8-(1,3-oxazol-5-yl)imidazo[1,2-a]pyridin-3-yl)((1S,4S)-2-oxa-5-azabicyclo[2.2.1]hept-5-yl)methanone] | 91 |
| O=C(NCc1ccccc1)c1nnc2c(-c3cnco3)cc(C(F)(F)F)cn12 [Example 107, N-benzyl-8-(1,3-oxazol-5-yl)-6-(trifluoromethyl)[1,2,4]triazolo[4,3-a]pyridine-3-carboxamide] | 89 |
| O=C(c1cnc2c(-c3cnco3)cc(F)cn12)N1C2CCC1COC2 [Example 138, (6-fluoro-8-(1,3-oxazol-5-yl)imidazo[1,2-a]pyridin-3-yl)(3-oxa-8-azabicyclo[3.2.1]oct-8-yl)methanone] | 82 |
| O=C(NC1CCOCC1)c1cnc2c(-c3cnco3)cc(C(F)(F)F)cn12 [Example 44, 8-(1,3-oxazol-5-yl)-N-(tetrahydro-2H-pyran-4-yl)-6-(trifluoromethyl)imidazo[1,2-a]pyridine-3-carboxamide] | 93 |
| Cc1cc(-c2cnco2)c2ncc(C(=O)N3C[C@@H]4C[C@H]3CO4)n2c1 [Example 78, (6-methyl-8-(1,3-oxazol-5-yl)imidazo[1,2-a]pyridin-3-yl)((1S,4S)-2-oxa-5-azabicyclo[2.2.1]hept-5-yl)methanone] | 94 |
| CCOC(=O)c1cnc2c(-c3cnco3)cc(C(F)(F)F)cn12 [Example 1, ethyl 8-(1,3-oxazol-5-yl)-6-(trifluoromethyl)imidazo[1,2-a]pyridine-3-carboxylate] | 86 |
| O=C(c1cnc2c(-c3cnco3)cc(C3CC3)cn12)N1C[C@@H]2C[C@H]1CO2 [Example 116, (6-cyclopropyl-8-(1,3-oxazol-5-yl)imidazo[1,2-a]pyridin-3-yl)((1S,4S)-2-oxa-5-azabicyclo[2.2.1]hept-5-yl)methanone] | 90 |
| O=C(c1cnc2c(-c3cnco3)cc(-c3cnco3)cn12)N1C[C@@H]2C[C@H]1CO2 [Example 93, (6,8-di(1,3-oxazol-5-yl)imidazo[1,2-a]pyridin-3-yl)((1S,4S)-2-oxa-5-azabicyclo[2.2.1]hept-5-yl)methanone] | 68 |
| O=C(c1cnc2c(-c3cnco3)cc(C(F)(F)F)cn12)N1CCCC1 [Example 2, (8-(1,3-oxazol-5-yl)-6-(trifluoromethyl)imidazo[1,2-a]pyridin-3-yl)(pyrrolidin-1-yl)methanone] | 89 |
| O=C(c1cnc2c(-n3cncn3)cc(C(F)(F)F)cn12)N1C2COCC1C2 [Example 156, 3-oxa-6-azabicyclo[3.1.1]hept-6-yl(8-(1H-1,2,4-triazol-1-yl)-6-(trifluoromethyl)imidazo[1,2-a]pyridin-3-yl)methanone] | 94 |
| O=C(c1cnc2c(-n3cncn3)cc(C(F)(F)F)cn12)N1C[C@@H]2C[C@H]1CO2 [Example 128, (1S,4S)-2-oxa-5-azabicyclo[2.2.1]hept-5-yl(8-(1H-1,2,4-triazol-1-yl)-6-(trifluoromethyl)imidazo[1,2-a]pyridin-3-yl)methanone] | 86 |

Next, values leading:

| inhibition at 1 µM [%] | SMILES |
| --- | --- |
| 91 | O=C(c1cnc2c(-c3cnco3)cc(C(F)(F)F)cn12)N1CC[C@H](OCC(F)F)C1 [Example 90, ((3S)-3-(2,2-difluoroethoxy)pyrrolidin-1-yl)(8-(1,3-oxazol-5-yl)-6-(trifluoromethyl)imidazo[1,2-a]pyridin-3-yl)methanone] |
| 88 | O=C(c1cnc2c(-c3cnco3)cc(C(F)(F)F)cn12)N1C[C@@H]2C[C@H]1CO2 [Example 71, (1S,4S)-2-oxa-5-azabicyclo[2.2.1]hept-5-yl(8-(1,3-oxazol-5-yl)-6-(trifluoromethyl)imidazo[1,2-a]pyridin-3-yl)methanone] |
| 93 | Cc1cc(-c2cnco2)n2ncc(C(=O)N3C[C@@H]4C[C@H]3CO4)c2c1 [Example 126, (5-methyl-7-(1,3-oxazol-5-yl)pyrazolo[1,5-a]pyridin-3-yl)((1S,4S)-2-oxa-5-azabicyclo[2.2.1]hept-5-yl)methanone] |
| 87 | O=C(c1cnc2c(-c3cnco3)cc(C(F)(F)F)cn12)N1CCOCC1 [Example 16, morpholin-4-yl(8-(1,3-oxazol-5-yl)-6-(trifluoromethyl)imidazo[1,2-a]pyridin-3-yl)methanone] |
| 99 | O=C(c1cnc2c(-c3cnco3)cc(C(F)(F)F)cn12)N1CC(F)(F)C1 [Example 21, (3,3-difluoroazetidin-1-yl)(8-(1,3-oxazol-5-yl)-6-(trifluoromethyl)imidazo[1,2-a]pyridin-3-yl)methanone] |
| 80 | O=C(c1nnc2c(-c3cnco3)cc(C(F)(F)F)cn12)N1C[C@@H]2C[C@H]1CO2 [Example 58, (1S,4S)-2-oxa-5-azabicyclo[2.2.1]hept-5-yl(8-(1,3-oxazol-5-yl)-6-(trifluoromethyl)[1,2,4]triazolo[4,3-a]pyridin-3-yl)methanone] |
| 92 | CN(C(=O)c1cnc2c(-c3cnco3)cc(C(F)(F)F)cn12)C1CCOCC1 [Example 47, N-methyl-8-(1,3-oxazol-5-yl)-N-(tetrahydro-2H-pyran-4-yl)-6-(trifluoromethyl)imidazo[1,2-a]pyridine-3-carboxamide] |
| 69 | CCNC(=O)c1c(C)nc2c(-c3cnco3)cc(C(F)(F)F)cn12 [Example 98, N-ethyl-2-methyl-8-(1,3-oxazol-5-yl)-6-(trifluoromethyl)imidazo[1,2-a]pyridine-3-carboxamide] |
| 88 | O=C(C1CC1)n1ccc2c(-c3cnco3)cc(C(F)(F)F)cc21 [Example 4, cyclopropyl(4-(1,3-oxazol-5-yl)-6-(trifluoromethyl)-1H-indol-1-yl)methanone] |
